“And” between values parts separate entries of the source, which are not always exact repeats. Equal entries are not always repeated. Where two headings read alike, the source gives them in different places.
Legend:
COX-2 = target: T1, COX-2 (Mus musculus, UniProt Q05769); experiment: cell-based
T1 construct: LPS, which was used to induce the expression of COX-2 in the RAW 264.7 cells; host or cells: RAW 264.7 (murine), LPS-stimulated
T1 sequence (Q05769 18-604): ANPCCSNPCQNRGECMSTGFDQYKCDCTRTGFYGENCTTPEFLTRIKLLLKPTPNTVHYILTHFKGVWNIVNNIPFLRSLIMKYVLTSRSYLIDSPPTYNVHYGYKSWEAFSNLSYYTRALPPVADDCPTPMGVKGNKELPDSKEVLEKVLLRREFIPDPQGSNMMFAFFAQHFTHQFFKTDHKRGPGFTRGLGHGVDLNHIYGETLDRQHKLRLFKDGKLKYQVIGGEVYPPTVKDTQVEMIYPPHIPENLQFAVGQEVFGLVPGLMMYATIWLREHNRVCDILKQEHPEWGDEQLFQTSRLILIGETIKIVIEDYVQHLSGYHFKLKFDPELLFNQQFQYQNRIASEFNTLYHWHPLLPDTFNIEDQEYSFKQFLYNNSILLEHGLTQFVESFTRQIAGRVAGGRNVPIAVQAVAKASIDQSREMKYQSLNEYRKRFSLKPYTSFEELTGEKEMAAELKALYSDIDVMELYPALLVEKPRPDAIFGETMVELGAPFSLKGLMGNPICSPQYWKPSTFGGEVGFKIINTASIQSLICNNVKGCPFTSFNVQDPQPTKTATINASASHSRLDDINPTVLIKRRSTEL
Procedure: The DMEM growth medium was made as follows 50 mL of heat inactivated FBS and 5 mL of penicillin/streptomycin were added to a 500 mL bottle of DMEM and stored at 4° C. This was warmed to 37° C. in a water bath before use and for best results should be used within three months.
On day one of the experiment, the log phase 264.7 cells were plated at 8×10^4 cells per well in 0.2 mL growth medium per well in a 96-well tissue culture plate. After 6 to 8 hours post plating, 100 μL fresh medium. […] It was mixed until dissolved and stored at 4° C. Immediately before use, it was thawed at room temperature or in a 37° C. water bath. A new solution was prepared every 60 days.
On day two of the experiment, the test materials were prepared as 1000× stock in DMSO. For example, if the final concentration of the test material was to be 10 μg/mL, a 10 mg/mL stock was prepared by dissolving 10 mg of the test material in 1 mL of DMSO. Fresh test materials were prepared on day 2 of the experiment. In 1.7 mL microfuge tubes, 1 mL DMEM without FBS was added to obtain test concentrations of 0.05, 0.10, 0.5, and 1.0 μg/mL. 2 μL of the 1000×DMSO stock of the test material was added to the 1 mL of medium without FBS. The tube contained the final concentration of the test material was concentrated 2-fold. The tube was placed in incubator for 10 minutes to equilibrate.
One-hundred mL of medium was removed from each well of the cell plates prepared on day one. One-hundred mL of equilibrated 2× final concentration the test compounds were added to cells and incubated for 90 minutes. LPS in DMEM without FBS was prepared by adding 44 μL of the 1 mg/mL DMSO to 10 mL of medium. For each well of cells to be stimulated, 20 μL of LPS (final concentration of LPS is 0.4 μg/mL of LPS) was added.
Determination of PGE2 Concentration in Medium
Equipment—freezer, 30° C.
General Procedure—EIA Buffer was prepared by diluting the contents of the EIA Buffer Concentrate (vial #4) with 90 ml of Ultra-pure water. Vial #4 was rinsed several times to ensure all crystals had been removed and was then placed into a 100 mL storage bottle and stored at 4° C.
The Wash Buffer was prepared by diluting Wash Buffer Concentrate (vial #5) 1:400 with Ultra-pure water. 0.5 ml/liter of Tween 20 (vial #5a) was then added (using a syringe for accurate measurement). For one liter Wash Buffer add 2.5 ml Wash Buffer Concentrate, 0.5 ml Tween-20, and 997 ml Ultra-pure water. The solution was stored in a 1 liter storage bottle at 4° C.
The Prostaglandin E2 standard was reconstituted as follows. A200 μL pipet tip was equilibrated by repeatedly filling and expelling the tip several times in ethanol. The tip was used to transfer 100 μL of the PGE2 Standard (vial #3) into a 1.7 mL microfuge tube. 900 μL Ultra-pure water was added to the tube and stored at 4° C., which was stable for ˜6 weeks. The Prostaglandin E2 acetylcholinesterase tracer was reconstituted as follows. 100 μL PGE2 tracer (vial #2) was mixed with 30 mL of the EIA Buffer in a 50 mL centrifuge tube and stored at 4° C.
The Prostaglandin E2 monoclonal antibody was reconstituted as follows. 100 μL PGE2 Antibody (vial #1) was mixed with 30 mL of the EIA buffer in a 50 mL centrifuge tube and stored at 4° C.
DMEM with penicillin/streptomycin was prepared by adding 5 mL penicillin/streptomycin into 5 mL DMEM and stored at 4° C.
The plates were set up as follows: Each plate contained a minimum of two blanks (B), two non-specific binding wells (NSB), two maximum binding wells (B0), and an eight point standard curve run in duplicate (S1-S8).

COX-2 over COX-1 = details: reported, background; cited from earlier work
COX-1 enzyme (ovine) = target: T2, COX-1 enzyme (ovine) (Ovis aries, UniProt P05979); experiment: COX-1 enzyme inhibition (COX-1 synthesis of PGE2); format: biochemical
T2 construct: purchased Cayman Chemical $60100
T2 sequence (P05979 25-600): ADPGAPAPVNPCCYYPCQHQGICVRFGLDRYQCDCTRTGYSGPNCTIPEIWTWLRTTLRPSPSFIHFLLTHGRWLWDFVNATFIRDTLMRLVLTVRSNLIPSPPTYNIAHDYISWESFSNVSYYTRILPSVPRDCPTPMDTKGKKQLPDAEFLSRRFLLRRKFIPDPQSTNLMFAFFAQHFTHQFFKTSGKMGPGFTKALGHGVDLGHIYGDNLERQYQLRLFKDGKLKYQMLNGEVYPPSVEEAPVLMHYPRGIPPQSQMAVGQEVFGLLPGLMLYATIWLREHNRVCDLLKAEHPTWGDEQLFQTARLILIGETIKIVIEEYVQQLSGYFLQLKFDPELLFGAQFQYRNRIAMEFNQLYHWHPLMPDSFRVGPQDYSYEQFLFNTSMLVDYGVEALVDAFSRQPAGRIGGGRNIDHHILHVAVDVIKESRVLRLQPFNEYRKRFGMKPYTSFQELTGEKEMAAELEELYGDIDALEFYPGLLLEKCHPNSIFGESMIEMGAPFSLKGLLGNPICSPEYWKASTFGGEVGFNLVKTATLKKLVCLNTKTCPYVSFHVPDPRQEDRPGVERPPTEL
Procedure: General Prodecure—Oxygen-free 1.0M Tris-HCl buffer (pH 8.0) was prepared as follows: In a 1000 mL beaker, 12.11 g Trizma HCl was dissolved into 900 mL ultra-pure water. The beaker was placed on a stir plate with a stir bar. NaOH was added until the pH reached 8.0. The volume was adjusted to a final volume of 100 mL and stored in a 1000 mL storage bottle.
The Tris-HCl buffer was placed into a vacuum chamber with the top loosened and the air pump was turned on until the buffer stopped bubbling. The vacuum chamber was then turned off and the storage bottle was tightly covered. This steps was repeated each time when oxygen-free Tris-HCl buffer was used.
One mL cofactor solution was prepared by adding 1.3 mg (−) epinephrine, 0.3 mg reduced glutathione and 1.3 mg hematin to 1 mL oxygen free Tris-HCl buffer. The solutions of the test material were prepared as needed, i.e., 10 mg of aspirin was weighed and dissolved into 1 mL DMOS. Enzymes, i.e., prostaglandin E2 or prostaglandin F2alpha, were dissolved in oxygen free Tris-HCl buffer as follows, i.e., on ice, 6.5 μL of enzyme at 40,000 units/mL was taken and added to 643.5 μL of oxygen free Tris-HCl buffer. This enzyme solution is enough for 60 reactions. The COX-1 enzyme solution was prepared as follows: In a 15 mL centrifuge tube, 10 μL centrifuge tube, 10 μL COX-1 enzyme at 40,000 units/mL was added to oxygen free Tris-HCl with 50 μL of the cofactor solution per reaction. The mixture was incubated on ice for five minutes (i.e., for 60 reactions add 65 μL enzyme in oxygen free Tris-HCl buffer with 3.25 mL cofactor solution.
Sixty microliters of the enzyme solution were combined with 20 mL of the test solution in each well of a 96 well plate. […] The plates were preincubated on ice for 10 minutes. Twenty μL arachidonic acid (30 μM) was added and incubated for 15 minutes at 37° C.
The reaction was terminated by adding 10 μL 2 M HCl. The final solution was used as the supernatant for the PGE2 assay.
General Procedure—EIA Buffer was prepared by diluting the contents of the EIA Buffer Concentrate (vial #4) with 90 ml of Ultra-pure water. […]

[1] = RAW 264.7 cell model, read-out: COX-2 IC50 (converted)
[2] = second component alone, PGE2 production by COX-2, RAW 264.7 cells, 24 h LPS, read-out: Second Component IC50 (converted)

SMILES	IC50 (COX-2; [1])	IC50 (COX-2; [2])	also measured
C[C@H]1[C@H](C)CC[C@]2(C(=O)O)CC[C@]3(C)C(=CC[C@@H]4[C@@]5(C)CC[C@H](O)C(C)(C)[C@@H]5CC[C@]43C)[C@H]12 [Ursolic Acid, Ursolic acid]	130 µM	171 µM	–
CC(=O)Oc1ccccc1C(=O)O [aspirin]	–	–	COX-2 specificity (COX-2 over COX-1): 0.6
COc1cc(/C=C/C(=O)CC(=O)/C=C/c2ccc(O)c(OC)c2)ccc1O [Curcumin]	–	–	IC50 (COX-1 enzyme (ovine); COX-1 IC50, ovine COX-1 enzyme): 34.2 µM
C=C1CC[C@@H]2[C@](C)(CO)[C@H](O)CC[C@@]2(C)[C@@H]1C/C=C1/C(=O)OC[C@H]1O [Andrographolide]	819 µM	591 µM	IC50 (COX-1 enzyme (ovine); ovine COX-1 enzyme, read-out: COX-1 IC50 (converted)): ~4280 µM and 4280 µM; SPECIFICITY COX-1/COX-2 (COX-2; ratio COX-1 IC50 / COX-2 IC50): 5.2

— patent US20040247700A1 (priority 2001, published 2004)
